Test results taken from patent publication US12544365B2, “Pharmaceutical combination of an EP4 antagonist and immune checkpoint inhibitors for the treatment of tumours” (ROTTAPHARM BIOTECH S.R.L., priority 2019, dated 2026).

How the values were obtained:
[1] = biological target: human recombinant EP4 receptor (Homo sapiens, UniProt P35408); experiment: [3H]-PGE2 specific binding on human recombinant EP4 receptor (HEK293 membranes)
Method: Cell membranes were prepared from HEK293 cell line (Human Embryonic Kidney 293) stably overexpressing human recombinant EP4 receptor. Cells grow adherent in DMEM with Glutamax | containing 10% FBS at 37° C. with 5% CO2. For membranes preparation, culture medium was aspirated from 150 cm^2 flasks in which cells were seeded. Cell monolayers were washed with 10 ml of hypotonic lysis buffer (TRIS 5 mM+EDTA 5 mM-pH 7.4), then cells were detached and lysed with the same buffer and by mechanical scraping. Lysates were centrifuged at 40000×g at 4° C. for 22 min. Pellets were stored at −80° C. until the use.
[3H]-Prostaglandin E2 ([3H]-PGE2) binding assays were performed in 10 mM MES-KOH buffer pH6, containing 10 mM MgCl2 and 1 mM CaCl2. Ten microgram of protein from membrane fractions are incubated in a total volume of 0.1 ml with 1 nM [3H]-PGE2. In order to determine the total binding or the non specific binding, 1% DMSO or 1 μM PGE2 were added to reaction mixtures, respectively. The specific binding represented >85% of total binding. In competition curves, the diluent was substituted by the test compounds (8 concentration spanning at least 2 order of magnitude; points in duplicates). In an independent series of experiments, competition curves of the same compounds were performed in the presence of Bovine Serum Albumin 0.5%. Incubation was carried out in a 96 multiwell plate for 90 min at room temperature, prior to separation of the bound and free radioligand by rapid filtration on glass fiber filters (Unifilter GFB96, PerkinElmer Inc) pre-soaked in 0.3% polyethyleneimine. Filters were washed with ice cold buffer pH 7.4 (50 mM HEPES, NaCl 500 mM, BSA 0.1%), dried for 30 minutes at 30° C. and then 0.1 ml of MICROSCINT-20 (PerkinElmer Inc) were added. The residual [3H]-PGE2 binding was determined by solid scintillation counter (TopCount, PerkinElmer Inc), after at least 1 hour of stabilization. Results of the competition curves were expressed as IC50 and the corresponding Ki were calculated according to the Chang-Prousoff equation. Finally the Ki value was transformed in pKi (the negative log of Ki).

[2] = test system: TNF-α gene expression in human THP-1 macrophages; experiment: TNF-α gene expression in THP-1 cells differentiated to macrophages (LPS + PGE2), RT-PCR; format: cell-based; conditions: LPS 10 ng/ml + PGE2 10 nM, 3 hours, concentration as low as 0.1 μM
Method: The human monocyte cell line THP-1, obtained from the ATCC, was grown according to the instructions provided. THP-1 cells were differentiated to macrophages with 100 nM phorbol 12-myristate 13-acetate (PMA) (Sigma Aldrich) for 4 days. Macrophages were then stimulated with lipopolysaccharide (LPS) (Sigma Aldrich) 10 ng/ml and PGE2 0.01 μM for 3 hours. Total RNA was purified using the ABI Prism 6100 Nucleic Acid PrepStation (Applied Biosystems, Foster City, CA, USA) and retrotranscribed using the High-Capacity cDNA Reverse Transcription Kit (Thermo Fisher Scientific). RT-PCR analysis was performed using the Applied Biosystems 7500 Fast Real-Time PCR System using specific TaqMan assays (number Hs00174128_m1; Thermo Fisher Scientific) and, as an endogenous control, the 18S Pre-Developed TaqMan® Assay (Thermo Fisher Scientific). The data analysis, with normalisation on 18S amplified values, was done following Thermo Fisher Scientific's specific instructions for gene expression relative quantification. All individual data are the result of at least three different analyses for each sample.
To evaluate the Compound 1 potential in counteracting the PGE2 induced inhibition of TNF-α gene expression in human macrophages, THP-1 cells were differentiated to macrophages and subsequently treated with LPS 10 ng/ml plus PGE2 10 nM+Compound 1 in the 0.01 μM to 10 μM concentrations range for 3 hours.

[3] = test system: RANK-L gene expression in MDA-MB-231 cells; experiment: RANK-L gene expression in MDA-MB-231 cells stimulated with PGE2, RT-PCR; format: cell-based, human; conditions: 10 μM compound + 10 μM PGE2, 24 hours
Method: The human mammary gland adenocarcinoma MDA-MB-231 cells were obtained from ATCC and grown according to the instructions provided.
Cells were treated with 10 μM PGE2+Compound 1 10 μM for 24 hours. Total RNA was purified using the ABI Prism 6100 Nucleic Acid PrepStation (Applied Biosystems, Foster City, CA, USA) and retrotranscribed using the High-Capacity cDNA Reverse Transcription Kit (Thermo Fisher Scientific). RT-PCR analysis was performed using the Applied Biosystems 7500 Fast Real-Time PCR System using specific TaqMan assays (Hs00243522_m1; Thermo Fisher Scientific) and, as an endogenous control, the 18S Pre-Developed TaqMan® Assay (Thermo Fisher Scientific). The data analysis, with normalisation on 18S amplified values, was done following Thermo Fisher Scientific specific instructions for gene expression relative quantification. All individual data are the result of at least three different analyses for each sample.
MDA-MB-231 cells treated with 10 μM PGE2+Compound 1 10 μM for 24 hours and the levels of RANKL gene expression were evaluated by quantitative RT-PCR.

[4] = test system: Treg differentiation of human CD4+ naïve T cells; experiment: Ex vivo human T regulatory cells differentiation (flow cytometry); format: cell-based; conditions: 0.1 μM compound, 0.03 μM PGE2, 144 hours
Method: Peripheral blood mononuclear cells (PBMC) were isolated from healthy volunteers using density gradient centrifugation and CD4+naïve T cells were enriched from PBMCs using human naïve CD4+ T cell isolation kit (Miltenyi Biotech). Isolated CD4+ T cells were maintained in RPMI medium and differentiated toward a Treg phenotype using two interleukins, namely, rIL23 and rIL-1B, both at a concentration of 10 ng/ml and co-stimulated with PGE2 at 30 nM concentration over a 144 hours incubation period.
At the end of incubation cells were stained with fluorescence conjugated antibodies specific for CD3, CD4, FoxP3, CD25, IL35 and CRTH2 (all from BD Bioscience). Finally, the number of Treg cells was determined by flow cytometry and the events were measured by Fluorescence Activated Cell Sorter (FACS; BD Bioscience) and analyzed with dedicated software.

[5] = Stability of Form A at different humidity values and temperatures; format: physicochemical
Description: The stability of the Form A (named also as Compound 1) of the sodium salt of R)-4-(1-(6-(4-(trifluoromethyl)benzyl)-6-azaspiro[2.5]octane-5-carboxamido)cyclopropyl)benzoic acid at different humidity values and temperatures was investigated.

Chain of human recombinant EP4 receptor (P35408 whole entry): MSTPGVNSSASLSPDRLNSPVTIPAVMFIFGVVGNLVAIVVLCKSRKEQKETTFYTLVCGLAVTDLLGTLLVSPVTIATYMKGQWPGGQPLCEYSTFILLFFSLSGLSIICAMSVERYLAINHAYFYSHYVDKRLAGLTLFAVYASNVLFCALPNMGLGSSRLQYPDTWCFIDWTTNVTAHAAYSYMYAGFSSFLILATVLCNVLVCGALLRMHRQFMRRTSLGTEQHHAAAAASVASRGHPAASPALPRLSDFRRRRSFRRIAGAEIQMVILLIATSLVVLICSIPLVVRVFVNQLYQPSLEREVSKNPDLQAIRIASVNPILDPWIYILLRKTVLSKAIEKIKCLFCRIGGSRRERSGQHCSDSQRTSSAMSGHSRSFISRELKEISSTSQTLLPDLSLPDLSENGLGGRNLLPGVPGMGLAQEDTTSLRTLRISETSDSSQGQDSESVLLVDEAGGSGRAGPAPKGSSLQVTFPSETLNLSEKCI

**Q.** For `O=C([O-])c1ccc(C2(NC(=O)[C@H]3CC4(CCN3Cc3ccc(C(F)(F)F)cc3)CC4)CC2)cc1.[Na+]` [Compound 1, sodium (R)-4-(1-(6-(4-(trifluoromethyl)benzyl)-6-azaspiro[2.5]octane-5-carboxamido)cyclopropyl)benzoate], which Ki ([1]; BSA 0.5%) is on record?
**A.** 25.1 nM

**Q.** And the Ki ([1]; None (absence of BSA))?
**A.** 12.6 nM

**Q.** And the “TNF-α gene expression vs cells treated with PGE2+LPS only” value [2]?
**A.** two to three fold increase

**Q.** And the “RANK-L gene expression vs 10 μM PGE2” value [3]?
**A.** markedly decreased

**Q.** What about the Treg cell differentiation [4] of the same compound?
**A.** significantly decreased

**Q.** And the Stability ([5]; Powder, 50% RH −30° C.)?
**A.** Stable >24 hours

**Q.** And the Stability ([5]; Powder, 80° C.)?
**A.** Stable >5 days

**Q.** And the Stability ([5]; Powder, RT)?
**A.** Stable >1 month

**Q.** And the Stability ([5]; Sealed foil/Poly bag, 70% RH −40° C.)?
**A.** Stable >3 months
